Tests used:
T cell proliferation = conditions: Singer et al.; cited from earlier work
NIH3T3 cell line (D5C3) = assay: Blocking transformed phenotype of D5C3 cells (temperature-sensitive v-abl); assay type: cell-based, murine; set-up: key to Phenotype: 1+ represents a typical fibroblastic appearance of nontransformed NIH3T3 cells; visually graded on a scale of + (1+) to +++++ (5+); visually graded on a scale of + (1+) to +++++ (5+); +++++: 5+ represents a fully transformed phenotype; key to Growth: the nontransformed cells were scored as 1+ (for slower growth); graded from + (1+) to +++++ (5+); graded from + (1+) to +++++ (5+); +++++: the transformed cells were scored as 5+ (for rapid growth); conditions: for Growth / Phenotype: ciprofloxacin 50 µg/ml; for Phenotype: visually graded
Procedure: In an additional assay method of the invention, the effect of coadministering a xanthine compound with a candidate inhibitor for P450 can be assessed using transformed NIH3T3-[…] cells and comparing the effect on transformation phenotype among control, incubation with the xanthine derivative alone, and coincubation of the xanthine derivative with the P450 enzyme inhibitor. An NIH3T3 cell line ([…]) provides target cells which were transformed by an activated oncogene. The cells were transformed with a temperature-sensitive v-abl mutant gene. This mutant gene encodes a temperature-sensitive v-abl protein that produces a non-oncogenic product at a non-permissive temperature due to a lack of tyrosine phosphorylation. The cells were incubated at the permissive temperature (33°C) for 5 days after passage with and without pentoxifylline (1 mM).

[1] = system: TNF transcripts in CD3 positive lymphocytes; assay: Northern blot, mixed lymphocyte reaction; assay type: cell-based; conditions: Figure 19A
[2] = system: HLA-DR, the transferrin receptor (CD71), the IL-2 receptor (CD25), and CD69; conditions: MLR-stimulated lymphocytes; Singer et al.; cited from earlier work
[3] = system: phosphatidic acid phosphohydrolase (PAPH); assay: Invention assay (lipid HPLC after IL-1), indirect enzyme inhibition; assay type: cell-based, Human
Procedure: (§1) As shown hereinbelow, a simple assay involving incubation of target cells with primary stimulus in the presence or absence of the xanthine derivative followed by extraction and analysis of lipid content is diagnostic of the levels of various members of the foregoing pathway as characterized by their fatty acyl content. This assay indirectly measures the effect of the xanthine derivative on the relevant enzymes lysophosphatidic acid acyltransferase (LPAAT) and phosphatidic acid phosphoryl hydrolase (PAPH). In general, inhibition of these enzymes is effected by the xanthine derivative, thus resulting in lowering of the levels of the relevant species of the particular acylated subspecies of PA and DAG intermediates.
(§2) This example also illustrates the method of the invention.
(§3) Human glomerular mesangial cells were incubated with IL-1 for various time periods of 5-60 seconds and the cells were fixed in ice-cold methanol, and the lipids extracted using chloroform:methanol 2:1 (v/v). It is very important that the fixing/extraction process be conducted quickly so that the decomposition of unstable intermediates is halted.
(§4) The extracts were subjected to HPLC on a Rainin mu-Porasil column with a 3:4 hexane:propanol organic carrier and a 1-10% water gradient during the first 10 minutes of separation. The relative concentration of each lipid species is determined using absorption at 206 nm (A206), which follows unsaturated acyl content of lipid species. […] The absolute mass of each lipid species is determined by isolation of the lipid using a fraction collector, repurification on the HPLC column. Determination of phospholipid phosphorus is as nmoles/mg cellular protein. Protein concentration is determined using the Bradford technique.
(§5) Thus, the lyso PA that accumulates contains high levels of unsaturated fatty acids. Pentoxifylline in a dose range greater than 500 µM results in inhibition both of phosphatidate phosphohydrolase and of lyso PA acyl transferase.

[4] = system: lyso-PA acyl transferase (LPAAT); assay: as above; assay type: cell-based, Human; conditions: IL-1-stimulated HMC
Procedure: as §1, §2, §3, §4, §5

[5] = system: SV40 T-antigen-transformed human kidney mesangial cells; assay: Growth of transformed mesangial cells by tritiated thymidine uptake; assay type: cell-based
Procedure: SV40 T-antigen-transformed human kidney mesangial cells were cultured under standard conditions with rhIL-1 or with TNFα with and without pentoxifylline (PTX). Transformed mesangial cells grow independently of added growth factors, but IL-1 and TNFα are the normal proliferative signals for mesangial cells. As was shown in Example 1, when IL-1 is added to kidney mesangial cells, within 30 seconds LPAAT and PAPH are activated; the effect of both of these enzymes is inhibited by pentoxifylline at 1 mM. In this experiment, the growth of the treated cells was measured using tritiated thymidine uptake.

[6] = system: IL-2 receptor transcripts in CD3 positive lymphocytes; assay: Northern blot, mixed lymphocyte reaction; assay type: cell-based; conditions: Figure 19C
[7] = system: NIH3T3 murine fibroblast cells transformed with a mutated K-ras; assay: Subcutaneous tumors of K-ras-transformed NIH3T3 cells in nude mice; assay type: in vivo; conditions: after eight days, 10^6 cells subcutaneously
Procedure: Nude mice were injected subcutaneously with 10^6 cells and were treated either once or twice daily with 100 mg/kg pentoxifylline intraperitoneally. Control animals treated with only saline injections developed tumors that weighed 2.5 ±0.2 g after eight days. Animals treated once daily with pentoxifylline had tumors that weighed only 0.45 ±0.2 g while animals treated twice daily had tumors that weighed 0.2 ±0.1 g.

[8] = system: IL-8 encoding mRNA in U937 and THP1; assay: Northern blot of IL-8 mRNA after lipopolysaccharide or GM-CSF induction; assay type: cell-based
Procedure: The murine fibrosarcoma cell line, L929, was also tested as an indicator for assays of TNF cytotoxicity. Cell growth was assayed by crystal violet staining using optical density as a measure of growth. […] Finally, two monocytic cell lines, U937 and THP1, were used to test the effect of pentoxifylline on the […] of the cytokine IL-8. The cell lines in culture were induced to upregulate IL-8 production by lipopolysaccharide or GM-CSF.

[9] = system: NIH3T3 murine fibroblast cells transformed with a mutated K-ras; assay: Growth and anchorage-independent growth in soft agar of K-ras-transformed cells in vitro; assay type: cell-based; conditions: Mus musculus, NIH3T3, read-out: concentrations resulting in inhibition of growth and suppression of anchorage-independent growth
Procedure: Additionally, NIH3T3 murine fibroblast cells transformed with a mutated K-ras (codon 12 Gly-Val) were tested in vitro and in nude mice.

[10] = system: Steel factor transcripts in marrow stromal cell lines; assay: Northern blot of Steel factor transcripts; assay type: cell-based; conditions: three-hour incubation; passaged (native) or cloned (CDCL) lines
[11] = system: Human glomerular mesangial cells; assay: Invention assay: HPLC of lipids (PA, DAG) extracted from IL-1-stimulated mesangial cells; assay type: cell-based
Procedure: The compounds of Formula I are shown to modulate the effects of primary stimuli which elevate levels of the relevant subspecies of PA and DAG using the assay system of the invention. In general for the assay, the cells to be tested are first incubated with the primary stimulating agent for various time periods and fixed in ice-cold methanol. The lipids are extracted using, for example, chloroform:methanol 2:1 (v/v), and the extracts are then subjected to HPLC as described by Bursten and Harris, Biochemistry (1991) . In this method, a Rainin mu-Porasil column is used with a 3:4 hexane:propanol organic carrier and a 1-10% water gradient during the first 10 minutes of separation. Detection of the peaks in the elution pattern is by absorption in the range of ultraviolet which detects isolated double bonds. Thus, the relevant peaks of unsaturated PA and DAG are shown in the elution pattern. It is important to note that the assay method permits discrimination between various forms of PA and DAG so that those relevant to the pathway affected by the compounds of Formula I can be measured directly. Confirmation of the nature of the acyl substituents of these components is accomplished using fast-atom bombardment mass spectroscopy. Thus, the relevant unsaturated (non-arachidonic) PA and DAG subspecies may be detected. The time periods employed are 5-60 seconds after stimulation with the primary stimulus, such as a cytokine. This technique permits assessment of the levels of various lipid components as a function of time. […]
as §4, with “Determination of phospholipid phosphorus is as nmoles/mg cellular protein.” left out, “technique. […]” for “technique.”

[12] = system: TNFα transcripts in U937 cells; assay: Northern blot of TNF transcripts after LPS induction; assay type: cell-based; conditions: 1 mM PTX; LPS for three hours
CD3-positive lymphocytes = assay: Proliferation (thymidine uptake) of CD2-positive cells stimulated by anti-CD3 monoclonal antibody; assay type: cell-based
Procedure: In these experiments, freshly isolated, CD2-positive cells were stimulated by a solid-phase monoclonal antibody to acquire a CD3 phenotype, and then PTX was added. […] The block in proliferation could not be overcome by addition of either tumor necrosis factor (Figures 20 and 21) or IL-1 (Figure 21). […] The cytokines and PTX were added at culture inception and the cells were harvested after 5 days.

[13] = system: IL-6 transcripts in bone marrow stromal cells; assay: Northern blot of IL-6 transcripts; assay type: cell-based; conditions: three-hour exposure, increasing concentrations
[14] = system: IL-2 transcripts in CD3 positive lymphocytes; assay: Northern blot, mixed lymphocyte reaction; assay type: cell-based; conditions: Figure 19B
[15] = system: human leukemic cell line (Mo7e); assay: GM-CSF-stimulated colony formation in semisolid medium; assay type: cell-based; conditions: colonies counted 10 days after culture initiation; Figure 14
Procedure: The human leukemic cell line (Mo7e) is dependent on added granulocyte-macrophage colony-stimulating factor (GM-CSF) for growth. Mo7e cells were cultured in semisolid medium with and without pentoxifylline (PTX) and rhGM-CSF. Colonies were counted 10 days after culture initiation under an inverted microscope. […] PTX thus prevents the up-regulation of activation-associated genes which inhibit proliferation.

[16] = 33°C, 5 days, pentoxifylline 1 mM

## Cn1c(=O)n(CCCCC(C)(C)O)c(=O)c2[nH]cnc21 [HWA138]
T cell proliferation
  suppression of T cell proliferation: minimal or no suppression

## O=C(O)c1cn(C2CC2)c2cc(N3CCNCC3)c(F)cc2c1=O [Ciprofloxacin]
NIH3T3 cell line (D5C3); [16]
  Growth: ++
  Phenotype: ++
NIH3T3 cell line (D5C3); pentoxifylline 1 mM, Ciprofloxacin 50 µg/ml
  inhibition of the transformed phenotype: significant effect

## CCOCn1cnc2c1c(=O)n(CCCCC(C)(C)O)c(=O)n2C [HWA448]
T cell proliferation
  suppression of T cell proliferation: active

## Cn1cnc2c1c(=O)n(CCCC(=O)O)c(=O)n2C [M5, 1-(3-carboxypropyl)-3,7-dimethylxanthine]
T cell proliferation
  suppression of T cell proliferation: minimal or no suppression

## CC(=O)CCCCn1c(=O)c2c(ncn2C)n(C)c1=O [Pentoxifylline]
[1]
  TNF transcripts: suppression
[2]
  expression of cell surface antigens on lymphocytes: decreased
[3]; 0.5 mM
  inhibition of PAPH: inhibits
[3]; IL-1-stimulated HMC
  dose range resulting in inhibition of phosphatidate phosphohydrolase: greater than 500 µM
[4]
  dose range resulting in inhibition of lyso PA acyl transferase: greater than 500 µM
NIH3T3 cell line (D5C3); 1 mM, 33°C, 5 days
  appearance of cells: predominantly non-transformed, fibroblastic appearance
NIH3T3 cell line (D5C3); [16]
  Growth: +++
  Phenotype: +++
NIH3T3 cell line (D5C3); Mus musculus, NIH3T3, 120 h, 1 mM, 33°C, 5 days, read-out: overall number of cells diminished
  inhibition at 1000 µM: ~50%
[5]; TNFα, Figure 13B
  proliferative effect of TNF: enhances
[5]; rhIL-1, Figure 13A
  growth stimulated by IL-1: arrested growth
[6]
  IL-2 receptor transcripts: suppression
[7]; 100 mg/kg intraperitoneally once daily
  tumor weight: 0.45 ± 0.2 g
[7]; 100 mg/kg intraperitoneally twice daily
  tumor weight: 0.2 ± 0.1 g
[8]
  synthesis of IL-8: did not inhibit
T cell proliferation
  proliferation of lymphocytes induced by anti-CD3: suppressed
[9]
  minimal effective concentration: ≥ 500 µM
[10]
  levels of Steel factor transcripts: increases
[11]; 100 µM pentoxifylline, 10^-11 M IL-1, 15- and 60-second points
  cyclical formation of PA, and conversion of PA to DAG: no change
[11]; 500 µM pentoxifylline, 10^-11 M IL-1, 15 second time point
  conversion of PA to DAG: slight attenuation
[11]; 1 mM, all time points examined (15-60 seconds)
  elevation of PA and DAG by IL-1: abolishes
[12]
  TNF RNA obtained in response to LPS stimulation: undetectable level
CD3-positive lymphocytes; CD2-positive cells stimulated by solid-phase monoclonal antibody
  Proliferation of CD3-positive lymphocytes: strikingly inhibited
CD3-positive lymphocytes; antibody 64.1, harvested after 5 days, not reversed by IL-1 or TNF
  thymidine uptake: diminished
[13]
  production of IL-6 transcripts: increased
[14]
  IL-2 transcripts: but not of IL-2 transcripts
[15]
  GM-CSF-stimulated growth of colonies: enhanced

## CC(O)C(O)CCCn1c(=O)c2c(ncn2C)n(C)c1=O (stereo not drawn) [M3, 1-(4,5-dihydroxyhexyl) -3,7-dimethylxanthine]
T cell proliferation
  suppression of T cell proliferation: minimal or no suppression

## Cn1cnc2c1c(=O)n(CCCCC(=O)O)c(=O)n2C [M4, 1-(4-carboxybutyl)-3,7-dimethylxanthine]
T cell proliferation
  suppression of T cell proliferation: minimal or no suppression

## CC(O)CCCCn1c(=O)c2c(ncn2C)n(C)c1=O (stereo not drawn) [M1, 1-(5-hydroxyhexyl) -3,7-dimethylxanthine]
T cell proliferation
  suppression of T cell proliferation: active

From patent publication EP1214938A2, “Modulation of cellular response to external stimuli” (priority 1991, dated 1992)
